Measured values reported in EP1552850A2, “A combination of FBPase inhibitors and insulin sensitizers for the treatment of diabetes” (priority 1998, dated 2000).

Assays:
[1] = Oral Bioavailability Determination (urinary excretion method); format: in vivo, Sprague Dawley rats; conditions: rat, oral 10-40 mg/kg vs intravenous parent, 24 hours urine
Experimental: The oral bioavailability of prodrugs and parent compounds was determined by the urinary excretion method in the rat. Prodrugs were dissolved in 10% ethanol/90% polyethylene glycol (mw 400) and administered by oral gavage at doses of 10 to 40 mg/kg parent compound equivalents to 6-hour fasted, Sprague Dawley rats (220-240 g). Parent compounds were typically dissolved in deionized water, neutralized with sodium hydroxide, and then administered orally at 10-40 mg/kg or intravenously at ~10 mg/kg. The rats were subsequently placed in metabolic cages and urine was collected for 24 hours. The quantity of parent compound excreted into urine was determined by HPLC analysis as described in Example F. Analysis was performed as described in Example F. For prodrugs, the percentage oral bioavailability was estimated by comparison of the recovery in urine of the parent compound generated from the prodrug administered orally, to that recovered in urine following intravenous administration of the corresponding parent compound. For parent compounds, the percentage oral bioavailability was estimated by comparison of the recovery in urine of the parent compound when administered orally to that recovered when administered intravenously.

[2] = test system: ZDF rat; experiment: Combination treatment with Troglitazone and Compound G or Compound J in the ZDF rat - blood glucose; format: in vivo, Zucker Diabetic Fatty (ZDF) rat; conditions: for Blood Glucose, Day 0: baseline
Experimental: At 11 weeks of age, animals with blood glucose >500 mg/dl were selected and divided into 4 treatment groups (n=8/group). […] Blood glucose levels were measured in tail vein samples by means of a HemoCue glucose analyzer (HemoCue Inc., Mission Viejo, CA). Values are expressed as the mean plus or minus the standard error of the mean. Differences between groups were evaluated by analysis of variance with the Tukey-Kramer post hoc test.

[3] = test system: type 2 diabetics; conditions: clinic; cited from earlier work
[4] = test system: db/db Mouse; experiment: Combination treatment with Troglitazone and Compound G in the db/db mouse - blood glucose; conditions: db/db mice, baseline
Experimental: Male db/db mice were purchased at 8 weeks of age from Jackson Labs (Bar Harbor, Maine). […] At 10 weeks of age, animals with blood glucose >400 mg/dl and <900 mg/dl were selected and divided into 4 treatment groups (n=5-6/group). […] Treatment was for 18 days. […] Blood glucose levels were measured in tail vein samples by means of a HemoCue glucose analyzer (HemoCue Inc., Mission Viejo, CA). Values are expressed as the mean plus or minus the standard error of the mean. Differences between groups were evaluated by analysis of variance with the Tukey-Kramer post hoc test. Results are considered significant with p<0.05.

[5] = Hepatic and plasma drug metabolite levels after Compound A p.o. in rats; format: in vivo, SpragueDawley rats; conditions: after Compound A 250 mg/kg by oral gavage; 8 hours sampling
Experimental: Compound A was administered by oral gavage to freely-feeding SpragueDawley rats (250-300g). The compound was prepared as a suspension in carboxymethylcellulose, and administered at a dose of 250 mg/kg. For the determination of liver metabolites, rats were serially sacrificed over the course of 24 hours after drug administration. Livers were freeze-clamped, homogenized in perchloric acid, neutralized, and then analyzed for Compound B by anion exchange HPLC.
For the determination of plasma metabolites, rats were instrumented with carotid catheters prior to oral dosing. Blood samples were withdrawn via the catheters at appropriate time points over the course of 8 hours post drug administration. Plasma was prepared from the blood samples by centrifugation, and plasma protein precipitated by the addition of methanol to 60%. Compound A metabolites were quantitated by reverse phase HPLC in the deproteinated plasma samples. A C18 column (1.4 cm X 250 mm) was equilibrated with 10 mM sodium phosphate, pH 5.5 and eluted with a gradient from this buffer to acetonitrile. Detection was at 254 nm.

[6] = test system: Rat Hepatocytes; experiment: Inhibition of Glucose Production and Elevation of Fructose-1,6-Bisphosphate Levels in Rat Hepatocytes; format: cell-based
Experimental: Hepatocytes were prepared from fed Sprague-Dawley rats (250-300 g) according to the procedure of Berry and Friend (Berry, M.N., Friend, D.S., 1969, J. Cell. Biol. 43, 506-520) as modified by Groen (Groen, A.K., Sips, H.J., Vervoom, R.C., Tager, J.M. , 1982, Eur. J. Biochem. 122, 87-93). Hepatocytes (75 mg wet weight/ml) were incubated in 1 ml Krebs-bicarbonate buffer containing 10 mM Lactate, 1 mM pyruvate, 1 mg/ml BSA, and test compound concentrations from 0 to 500 µM. Incubations were carried out in a 95% oxygen, 5% carbon dioxide atmosphere in closed, 50-ml Falcon tubes submerged in a rapidly shaking water bath (37°C). After 1 hour, an aliquot (0.25 ml) was removed, transferred to an Eppendorf tube and centrifuged. 50 µl of supernatant was then assayed for glucose content using a Sigma Glucose Oxidase kit as per the manufacturer's instructions.
Rat hepatocytes were isolated and incubated as described in Example C. Cell extracts, were analyzed for glucose content as described in Example C, and also for fructose 1,6-bisphosphate. Fructose 1,6-bisphosphate was assayed spectrophotometrically by coupling its enzymatic conversion to glycerol 3-phosphate to the oxidation of NADH, which was monitored at 340 nm. […] After a 30 minute preincubation at 37°C, 1 unit/mi of aldolase was added and the change in absorbance measured until a stable value was obtained. […]

[7] = test system: ZDF rat; conditions: in vivo
Experimental: At 11 weeks of age, animals with blood glucose >500 mg/dl were selected and divided into 4 treatment groups (n=8/group). […] Values are expressed as the mean plus or minus the standard error of the mean. Differences between groups were evaluated by analysis of variance with the Tukey-Kramer post hoc test.
Plasma was prepared by centrifugation and triglyceride levels then measured by means of a standard assay kit according to the instructions of the manufacturer (Sigma Chemical Company). Differences between groups were evaluated by analysis of variance with the Tukey-Kramer post hoc test. Results are considered significant with p<0.05.

[8] = Troglitazone-Compound J study, Troglitazone 0.2%, Compound J 0.4%

CSc1nc(-c2ccc(P(=O)(O)O)o2)c(CC(C)C)s1 [Compound H, 2-Methylthio-5-isobutyl-4-[2-(5-phosphono)furanyl]thiazole]
Oral bioavailability, % [1]: 4%

Cc1c(C)c2c(c(C)c1O)CCC(C)(COc1ccc(CC3SC(=O)NC3=O)cc1)O2 (stereo not shown) [Troglitazone]
Blood Glucose, Day 0 ([2]; Troglitazone-Compound G study, 0.2% food admixtures): 655 ± 33 mg/dL | hepatotoxicity, elevation of liver enzymes [3]: 1 % of patients | Blood Glucose, Day 0 [4]: 710 ± 44 mg/dL

NC(=O)c1ncn([C@@H]2O[C@H](CO)[C@@H](O)[C@H]2O)c1Br [5-bromo-1-βD-ribofuranosyl-imidazole-carboxamide]
detection in plasma [5]: detectable

CCc1cc(F)c(N)c2nc(-c3ccc(P(=O)(O)O)o3)n(CC(C)C)c12 [Compound E]
intracellular fructose 1,6-bisphosphate [6]: dose-dependent elevation

CCOC(=O)[C@H](C)NP(=O)(N[C@@H](C)C(=O)OCC)c1ccc(-c2nc(N)sc2CC(C)C)o1 [Compound J, 2-Amino-5-isobutyl-4-{2-[5-(N,N'-bis((S)-1-ethoxycarbonyl)ethyl)phosphonamido]furanyl}thiazole]
Blood Glucose, Day 0 [2, 8]: 674 ± 20 mg/dL | Blood Glucose, Day 21 [2, 8]: 452 ± 40 mg/dL | blood glucose lowering, pilot studies ([2]; ZDF rat, food admixture dose finding): trend (not significant) towards more pronounced blood glucose lowering at 0.4% than at 0.2% | elevation of plasma triglycerides [7]: ~2 fold
